Source: ChEMBL document CHEMBL1201862, “PubChem BioAssay data set” (2004)
Blank lines part the entries; values can stand above or below the molecule they belong to. Active and inactive are the calls of the source.

Tests used:
[1] = biological target: Glycogen synthase kinase-3 beta (Homo sapiens, UniProt P49841); format: functional;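 also: value comes from a broad kinome profiling panel, with GSK3B as the panel member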
[2] = biological target: Dual specificity tyrosine-phosphorylation-regulated kinase 1B (Homo sapiens, UniProt Q9Y463); experiment: Navigating the Kinome. Panel member name: DYRK1B; format: functional
Chain of Dual specificity tyrosine-phosphorylation-regulated kinase 1B (Q9Y463 whole entry): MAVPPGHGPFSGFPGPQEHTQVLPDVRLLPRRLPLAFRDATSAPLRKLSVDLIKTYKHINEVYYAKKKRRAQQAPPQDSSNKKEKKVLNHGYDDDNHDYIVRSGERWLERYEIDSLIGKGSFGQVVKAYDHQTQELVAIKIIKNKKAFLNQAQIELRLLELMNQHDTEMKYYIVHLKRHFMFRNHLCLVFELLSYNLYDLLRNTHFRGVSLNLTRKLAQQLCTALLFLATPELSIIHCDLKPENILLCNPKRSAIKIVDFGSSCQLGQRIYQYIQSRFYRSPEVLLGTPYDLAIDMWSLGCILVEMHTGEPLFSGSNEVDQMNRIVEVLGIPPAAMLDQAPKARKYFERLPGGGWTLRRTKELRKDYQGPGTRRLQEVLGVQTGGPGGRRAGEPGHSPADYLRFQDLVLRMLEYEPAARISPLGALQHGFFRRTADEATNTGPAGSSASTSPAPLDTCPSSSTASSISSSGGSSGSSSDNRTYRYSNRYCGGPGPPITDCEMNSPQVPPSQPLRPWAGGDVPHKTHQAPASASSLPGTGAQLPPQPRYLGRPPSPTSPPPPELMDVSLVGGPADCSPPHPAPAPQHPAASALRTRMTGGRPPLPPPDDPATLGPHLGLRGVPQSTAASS

[3] = biological target: Cyclin-dependent kinase 9 (Homo sapiens, UniProt P50750); format: functional;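 also: value from the CDK9 entry of a kinome-spanning kinase panel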
[4] = biological target: Melanin-concentrating hormone receptor 1 (Homo sapiens, UniProt Q99705); experiment: Late-stage fluorescence-based counterscreen for antagonists of the G-protein coupled receptor 7 (GPR7): cell-based dose response assay to identify antagonists of the melanin-concentrating hormone receptor 1 (MCHR1) Set 6.; format: functional
Chain of Melanin-concentrating hormone receptor 1 (Q99705 whole entry): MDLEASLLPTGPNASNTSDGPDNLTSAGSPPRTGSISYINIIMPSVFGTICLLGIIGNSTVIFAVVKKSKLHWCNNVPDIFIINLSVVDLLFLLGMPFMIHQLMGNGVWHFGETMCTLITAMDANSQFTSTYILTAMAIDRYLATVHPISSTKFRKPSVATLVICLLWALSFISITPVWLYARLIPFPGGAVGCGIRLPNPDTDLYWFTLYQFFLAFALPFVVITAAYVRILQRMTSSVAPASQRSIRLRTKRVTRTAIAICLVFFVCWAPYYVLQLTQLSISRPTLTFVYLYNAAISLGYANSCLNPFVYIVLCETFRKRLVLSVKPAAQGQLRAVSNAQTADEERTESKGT

[5] = biological target: Neuropeptides B/W receptor type 1 (Homo sapiens, UniProt P48145); experiment: GPR7 antagonist potency, late-stage follow-up, cell-based, fluorescence, dose response, set 6 (AID 588583); format: functional
Beta Lactamase = Beta Lactamase (Pseudomonas aeruginosa, UniProt Q932Y6); experiment: beta-lactamase reporter inhibitor potency, dose response, artefact control for TLR9-MyD88 binding inhibitor project, BLA reporter cells, FRET fluorescence (AID 588341); format: cell-based;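 also: cell based assay in CHO-K1 cells stably expressing beta-lactamase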
Chain of Beta Lactamase (Q932Y6 whole entry, the tested form may be a part): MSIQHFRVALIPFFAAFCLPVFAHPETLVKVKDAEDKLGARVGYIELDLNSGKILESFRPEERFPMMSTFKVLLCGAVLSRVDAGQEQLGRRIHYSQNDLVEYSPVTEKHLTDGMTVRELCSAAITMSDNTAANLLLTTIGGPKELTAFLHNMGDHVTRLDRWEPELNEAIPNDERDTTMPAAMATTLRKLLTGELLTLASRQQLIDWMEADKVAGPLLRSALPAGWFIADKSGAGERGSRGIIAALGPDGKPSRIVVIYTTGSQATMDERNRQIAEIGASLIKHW

CHO = experiment: cytotoxicity in TLR9-MyD88 CHO cells, dose response, cytotoxicity control for TLR9-MyD88 binding inhibitor project, cell-based, luminescence (AID 588339); format: functional, hamster; conditions: Cricetulus griseus;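 also: CHO cells stably coexpressing TLR9 and MyD88 fusions from primary screen; compound exposure lasted 48 hours before viability readout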
[6] = Luminescence Cell-Based Dose Retest to Confirm Inhibitors of Cancer Stem Cells. [Related pubchem assays (depositor defined):AID2717, AID2721]; format: functional; conditions: Homo sapiens
CAAX prenyl protease 2 [7] = biological target: T1, CAAX prenyl protease 2 (Saccharomyces cerevisiae S288c, UniProt Q03530); experiment: yeast Rce1 CaaX protease inhibitors, dose response, biochemical, plate reader, dry powder retest (AID 588851)
T1 sequence (Q03530 whole entry): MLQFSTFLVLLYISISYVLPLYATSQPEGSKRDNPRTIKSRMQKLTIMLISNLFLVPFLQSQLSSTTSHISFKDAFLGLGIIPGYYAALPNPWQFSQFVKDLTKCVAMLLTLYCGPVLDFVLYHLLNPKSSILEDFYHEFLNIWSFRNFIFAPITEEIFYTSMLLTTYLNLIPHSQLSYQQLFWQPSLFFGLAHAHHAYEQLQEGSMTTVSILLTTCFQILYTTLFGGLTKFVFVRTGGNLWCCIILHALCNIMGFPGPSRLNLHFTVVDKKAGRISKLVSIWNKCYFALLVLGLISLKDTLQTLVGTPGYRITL

CAAX prenyl protease 2 [8] = biological target: T1, CAAX prenyl protease 2; format: biochemical
Phospholipase D2 = Phospholipase D2 (Homo sapiens, UniProt O14939); experiment: PLD2 inhibitor potency in cells, dose response (AID 602147); format: functional;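 also: cellular assay in HEK293 cells overexpressing GFP-tagged PLD2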
Phospholipase D1 = Phospholipase D1 (Homo sapiens, UniProt Q13393); experiment: PLD1 inhibitor potency in cells, dose response (AID 602151); format: functional;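 also: cellular PLD1 assay in Calu-1 cells stimulated with PMA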
[9] = biological target: Calcium/calmodulin-dependent protein kinase type II subunit alpha (Homo sapiens, UniProt Q9UQM7); experiment: Navigating the Kinome. Panel member name: CAMK2A; format: functional
[10] = biological target: Platelet-derived growth factor receptor alpha (Homo sapiens, UniProt P16234); experiment: Navigating the Kinome. Panel member name: PDGFRA; format: functional
Chain of Platelet-derived growth factor receptor alpha (P16234 whole entry): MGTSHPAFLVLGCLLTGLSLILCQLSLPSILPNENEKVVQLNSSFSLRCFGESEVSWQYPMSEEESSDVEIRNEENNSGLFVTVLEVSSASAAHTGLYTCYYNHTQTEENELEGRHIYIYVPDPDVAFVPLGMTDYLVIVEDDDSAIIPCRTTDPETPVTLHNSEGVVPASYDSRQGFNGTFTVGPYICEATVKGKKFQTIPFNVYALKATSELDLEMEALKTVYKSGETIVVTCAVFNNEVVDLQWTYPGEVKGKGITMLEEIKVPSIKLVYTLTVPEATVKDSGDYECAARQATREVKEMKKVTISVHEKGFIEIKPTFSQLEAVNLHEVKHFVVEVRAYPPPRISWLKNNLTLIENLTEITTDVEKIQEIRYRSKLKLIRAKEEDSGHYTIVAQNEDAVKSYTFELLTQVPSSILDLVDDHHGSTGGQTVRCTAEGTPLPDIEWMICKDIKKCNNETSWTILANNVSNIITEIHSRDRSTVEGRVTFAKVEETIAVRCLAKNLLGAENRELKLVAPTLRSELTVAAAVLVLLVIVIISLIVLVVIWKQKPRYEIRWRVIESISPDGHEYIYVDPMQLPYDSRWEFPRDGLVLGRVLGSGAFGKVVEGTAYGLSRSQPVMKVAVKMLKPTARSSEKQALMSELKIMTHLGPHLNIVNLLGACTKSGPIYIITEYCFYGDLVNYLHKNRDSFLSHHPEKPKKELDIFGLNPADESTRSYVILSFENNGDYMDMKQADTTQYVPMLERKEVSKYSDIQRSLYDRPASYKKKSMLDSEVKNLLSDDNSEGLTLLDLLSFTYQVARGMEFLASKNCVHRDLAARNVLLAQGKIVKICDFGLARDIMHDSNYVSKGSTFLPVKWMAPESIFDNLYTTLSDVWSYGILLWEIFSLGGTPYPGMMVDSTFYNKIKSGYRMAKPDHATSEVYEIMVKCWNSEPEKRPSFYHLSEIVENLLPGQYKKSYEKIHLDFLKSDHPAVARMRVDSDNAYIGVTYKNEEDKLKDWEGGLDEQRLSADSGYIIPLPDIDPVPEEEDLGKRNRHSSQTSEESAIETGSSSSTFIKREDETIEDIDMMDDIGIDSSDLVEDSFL

Focal adhesion kinase 1 = Focal adhesion kinase 1 (Homo sapiens, UniProt Q05397); format: functional;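 also: measured as one member of a kinome panel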
[11] = biological target: Serine/threonine-protein kinase TAO1 (Homo sapiens, UniProt Q7L7X3); format: functional
Chain of Serine/threonine-protein kinase TAO1 (Q7L7X3 whole entry): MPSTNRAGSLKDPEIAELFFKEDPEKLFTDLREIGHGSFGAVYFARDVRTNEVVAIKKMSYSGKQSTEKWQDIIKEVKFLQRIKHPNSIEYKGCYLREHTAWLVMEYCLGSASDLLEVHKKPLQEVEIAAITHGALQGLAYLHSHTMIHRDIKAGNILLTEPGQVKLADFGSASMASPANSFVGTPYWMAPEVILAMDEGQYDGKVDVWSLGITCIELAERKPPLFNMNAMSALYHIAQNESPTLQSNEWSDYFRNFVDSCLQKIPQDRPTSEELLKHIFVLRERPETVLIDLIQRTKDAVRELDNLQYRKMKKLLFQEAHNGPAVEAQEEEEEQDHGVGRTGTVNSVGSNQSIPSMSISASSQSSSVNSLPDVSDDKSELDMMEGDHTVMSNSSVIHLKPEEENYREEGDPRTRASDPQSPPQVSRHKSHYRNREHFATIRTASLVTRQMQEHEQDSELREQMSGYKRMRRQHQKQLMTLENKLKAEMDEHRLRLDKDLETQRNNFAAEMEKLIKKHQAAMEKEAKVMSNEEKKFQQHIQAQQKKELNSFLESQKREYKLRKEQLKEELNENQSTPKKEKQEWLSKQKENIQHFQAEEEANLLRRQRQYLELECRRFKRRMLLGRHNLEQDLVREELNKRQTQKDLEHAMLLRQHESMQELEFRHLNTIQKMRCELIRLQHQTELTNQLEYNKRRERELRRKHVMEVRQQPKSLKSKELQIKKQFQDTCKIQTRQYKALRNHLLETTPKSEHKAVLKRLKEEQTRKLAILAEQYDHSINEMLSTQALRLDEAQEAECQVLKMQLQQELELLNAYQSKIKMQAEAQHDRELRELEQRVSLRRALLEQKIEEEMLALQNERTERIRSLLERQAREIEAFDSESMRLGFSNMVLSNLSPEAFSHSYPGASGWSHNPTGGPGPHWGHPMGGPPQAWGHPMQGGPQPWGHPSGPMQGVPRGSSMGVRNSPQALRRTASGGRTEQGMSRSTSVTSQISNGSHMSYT

[12] = biological target: Tyrosine-protein kinase Fyn (Homo sapiens, UniProt P06241); format: functional
Chain of Tyrosine-protein kinase Fyn (P06241 whole entry): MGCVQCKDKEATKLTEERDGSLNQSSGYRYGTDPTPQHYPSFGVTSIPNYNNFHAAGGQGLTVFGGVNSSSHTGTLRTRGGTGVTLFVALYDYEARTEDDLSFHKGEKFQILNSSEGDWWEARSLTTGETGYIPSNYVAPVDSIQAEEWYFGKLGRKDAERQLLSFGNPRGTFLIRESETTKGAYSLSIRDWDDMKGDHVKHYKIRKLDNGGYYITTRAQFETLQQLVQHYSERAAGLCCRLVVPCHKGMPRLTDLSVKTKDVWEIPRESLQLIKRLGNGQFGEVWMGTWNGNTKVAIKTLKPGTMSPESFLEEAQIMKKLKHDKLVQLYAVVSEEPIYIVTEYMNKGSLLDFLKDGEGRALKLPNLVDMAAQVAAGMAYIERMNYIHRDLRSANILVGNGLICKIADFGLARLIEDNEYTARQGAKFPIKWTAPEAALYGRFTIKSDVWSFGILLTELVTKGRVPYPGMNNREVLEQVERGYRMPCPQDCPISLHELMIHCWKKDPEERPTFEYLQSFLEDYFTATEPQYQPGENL

[13] = biological target: Tyrosine-protein kinase Lck (Homo sapiens, UniProt P06239); format: functional;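 also: lck was assayed as one member of a kinase panel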
[14] = biological target: Cyclin-dependent kinase 8 (Homo sapiens, UniProt P49336); experiment: Navigating the Kinome. Panel member name: CDK8; format: functional
[15] = biological target: Tyrosine-protein kinase BTK (Homo sapiens, UniProt Q06187); format: functional
Chain of Tyrosine-protein kinase BTK (Q06187 whole entry): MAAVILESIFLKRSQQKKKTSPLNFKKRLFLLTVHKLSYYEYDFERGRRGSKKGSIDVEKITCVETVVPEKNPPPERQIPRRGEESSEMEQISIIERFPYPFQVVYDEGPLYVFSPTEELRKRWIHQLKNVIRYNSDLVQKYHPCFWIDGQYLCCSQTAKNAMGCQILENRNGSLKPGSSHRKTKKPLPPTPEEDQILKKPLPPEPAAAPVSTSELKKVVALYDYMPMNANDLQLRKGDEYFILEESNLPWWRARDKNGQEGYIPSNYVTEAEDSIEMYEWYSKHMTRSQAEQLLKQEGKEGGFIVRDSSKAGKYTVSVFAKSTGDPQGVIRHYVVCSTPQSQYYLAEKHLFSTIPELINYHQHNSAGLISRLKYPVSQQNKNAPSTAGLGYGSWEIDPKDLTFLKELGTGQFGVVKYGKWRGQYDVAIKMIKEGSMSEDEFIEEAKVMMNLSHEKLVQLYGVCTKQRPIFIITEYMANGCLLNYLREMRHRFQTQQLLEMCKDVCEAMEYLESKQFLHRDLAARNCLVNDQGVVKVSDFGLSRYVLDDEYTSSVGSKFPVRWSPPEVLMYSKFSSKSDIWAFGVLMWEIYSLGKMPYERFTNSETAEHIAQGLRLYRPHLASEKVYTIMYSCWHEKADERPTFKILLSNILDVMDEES

[16] = biological target: Proto-oncogene tyrosine-protein kinase receptor Ret (Homo sapiens, UniProt P07949); format: functional;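 also: measured within a kinome-wide profiling panel, RET as the panel member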
[17] = biological target: ALK tyrosine kinase receptor (Homo sapiens, UniProt Q9UM73); format: functional;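 also: ALK tested as one member of a kinase panel screen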

Chain of Glycogen synthase kinase-3 beta (P49841 whole entry): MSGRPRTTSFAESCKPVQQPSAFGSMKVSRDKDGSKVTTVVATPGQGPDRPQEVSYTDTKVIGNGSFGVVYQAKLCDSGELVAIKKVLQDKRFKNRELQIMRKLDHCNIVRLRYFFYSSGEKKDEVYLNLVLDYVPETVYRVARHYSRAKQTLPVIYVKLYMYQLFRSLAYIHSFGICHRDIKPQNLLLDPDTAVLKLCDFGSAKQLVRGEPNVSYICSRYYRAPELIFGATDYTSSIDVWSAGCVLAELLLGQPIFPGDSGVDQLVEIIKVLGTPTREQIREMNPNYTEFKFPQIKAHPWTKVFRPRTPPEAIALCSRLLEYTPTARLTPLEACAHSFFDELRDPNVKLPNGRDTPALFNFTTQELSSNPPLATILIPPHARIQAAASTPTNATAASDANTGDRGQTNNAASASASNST

Ki [1]: 3.16 µM (active)
Ki [2]: 2.51 µM (active)
Ki [3]: 1.58 µM (active)
SMILES: CC1c2cccn2CCN1Cc1nc2scc(-c3ccco3)c2c(=O)[nH]1 (configuration not stated)

IC50 [4]: 3.04 µM (active)
IC50 [5]: 3.04 µM (active)
SMILES: N#CC(c1ccccc1)c1c(Cl)cnn(Cc2ccc3ccccc3c2)c1=O (configuration not stated)

SMILES: c1cc(SC2CCCCC2)cc(-c2nc3cnccn3c2NC2CCCCC2)c1
IC50 (Beta Lactamase): 4.83 µM (active)
IC50 (CHO): 23.4 µM (inactive)
AC50 [6]: 1.58 µM (active)

AC50 (CAAX prenyl protease 2 [7]): 3.15 µM (active)
AC50 (CAAX prenyl protease 2 [8]): 0.136 µM (active)
SMILES: Nc1nonc1-n1nnc(C(=O)N/N=C/c2cccc(Cl)c2)c1CSc1ccc(Cl)cc1

SMILES: C[C@@H](CN1CCC(n2c(=O)[nH]c3ccccc32)CC1)NC(=O)c1cc2cc(F)ccc2[nH]1
IC50 (Phospholipase D2): 0.13 µM (active)
IC50 (Phospholipase D1): 0.001 µM (active)

Ki [9]: > 7.94 µM (inactive)
Ki [10]: 0.794 µM (active)
Ki (Focal adhesion kinase 1): > 6.31 µM (inactive)
Ki [11]: 2.51 µM (active)
Ki [12]: > 6.31 µM (inactive)
Ki [13]: > 6.31 µM (inactive)
Ki [14]: 3.16 µM (active)
Ki [15]: > 6.31 µM (inactive)
Ki [16]: 1.26 µM (active)
Ki [17]: > 6.31 µM (inactive)
SMILES: CC(C)(C)c1cc(NC(=O)Nc2cccc3ccccc23)n(-c2cccc(C(=O)N(CCN)CCO)c2)n1
